Data on 13 compounds can be found in PubChem BioAssay (NCI).

Molecules are shown by their SMILES.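 The compound was tested at five concentrations on cells cultured in 96-well plates, with a 48-hour exposure period. TGI is the concentration that stops growth completely.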 A value given as a limit tells only on which side of the number the result lay.

One assay concerns T-47D breast. The experiment in a line: NCI tumour cell line growth inhibition, 48 h.
As for `CCCCCCCCCCCCC/C=C/[C@@H](O)[C@H](COC1OC(CO)C(OC2OC(CO)C(O)C(OC3(C(=O)O)CC(O)C(NC(C)=O)C(C(O)C(O)CO)O3)C2O)C(O)C1O)N=[N+]=[N-]` (some centres not stated), the TGI was over 100 µM.

Compound `COc1ccc2c(c1)C(=O)OCCC2` showed a TGI of over 100 µM.

In the case of `CCOC(=O)c1c(NC(=O)OC)c(C#N)c2n1CCCCC2`, the TGI is over 100 µM.

In the case of `O=C(/C=C/c1ccc(OCc2cccc(Cl)c2)cc1)NO`, the TGI came out at 36.7 µM.

For the compound `COc1cc(C(C)=O)cc(C(=O)N(C(C)C)C(C)C)c1[Si](C)(C)C`, the TGI was over 100 µM.

`COc1ccc(-c2nc(-c3cc4c(ccc5ccccc54)oc3=O)cs2)cc1` showed a TGI of over 100 µM.

Regarding `Cc1cc(C)c(C(=O)c2nnc3ccccc3c2N)c(C)c1`, the TGI worked out at 56.6 µM.

In the case of `Cc1c(C)n(-c2ccccc2)c2nc(S(C)(=O)=O)nc(S(C)(=O)=O)c12`, the TGI was 5.52 µM.

Compound `Cc1ccccc1N/C(=C(/C(Cl)=C(Cl)Cl)[N+](=O)[O-])n1nnc2ccccc21` had a TGI of 58 µM.

Consider `CCOC(=O)c1nc2ccc(C(F)(F)F)cc2[nH]c1=O`, for which the TGI is over 100 µM.

As for `CCC(=O)O[C@H]1CC[C@H]2[C@@H]3CCC4=C/C(=N/OC(=O)c5cccc6c(=O)c7ccccc7[nH]c56)CC[C@]4(C)[C@H]3CC[C@]12C`, the TGI is over 100 µM.

The compound `COc1ccc2[nH]c3c(c2c1)CC(=S)N1CCCC(CC3=O)C1` (configuration not stated) gave a TGI of over 100 µM.

For `O=C(O/C=C\OC1CCCC1(c1ccccc1)c1ccccc1)c1ccccc1` (configuration not stated), the TGI was found to be 7.42 µM.

The next assay has as its system K-562 leukemia. The assay can be described thus: NCI tumour cell line growth inhibition, 48 h.
`CCCCCCCCCCCCC/C=C/[C@@H](O)[C@H](COC1OC(CO)C(OC2OC(CO)C(O)C(OC3(C(=O)O)CC(O)C(NC(C)=O)C(C(O)C(O)CO)O3)C2O)C(O)C1O)N=[N+]=[N-]` (some centres not stated) returned a TGI of 60.6 µM.

Take `COc1ccc2c(c1)C(=O)OCCC2`: the TGI was over 100 µM.

The compound `CCOC(=O)c1c(NC(=O)OC)c(C#N)c2n1CCCCC2` registered a TGI of over 100 µM.

In turn, `O=C(/C=C/c1ccc(OCc2cccc(Cl)c2)cc1)NO` showed a TGI of over 100 µM.

Regarding `COc1ccc(-c2nc(-c3cc4c(ccc5ccccc54)oc3=O)cs2)cc1`, the TGI was over 100 µM.

Take `Cc1c(C)n(-c2ccccc2)c2nc(S(C)(=O)=O)nc(S(C)(=O)=O)c12`: the TGI was 2.95 µM.

As to `Cc1ccccc1N/C(=C(/C(Cl)=C(Cl)Cl)[N+](=O)[O-])n1nnc2ccccc21`, the TGI was over 100 µM.

As for `CCOC(=O)c1nc2ccc(C(F)(F)F)cc2[nH]c1=O`, the TGI was over 100 µM.

In the case of `CCC(=O)O[C@H]1CC[C@H]2[C@@H]3CCC4=C/C(=N/OC(=O)c5cccc6c(=O)c7ccccc7[nH]c56)CC[C@]4(C)[C@H]3CC[C@]12C`, the TGI worked out at 47 µM.

Compound `O=C(O/C=C\OC1CCCC1(c1ccccc1)c1ccccc1)c1ccccc1` (configuration not stated) displayed a TGI of over 36 µM.

Another assay deals with DU-145 prostate. The assay can be described thus: NCI tumour cell line growth inhibition, 48 h.
`CCCCCCCCCCCCC/C=C/[C@@H](O)[C@H](COC1OC(CO)C(OC2OC(CO)C(O)C(OC3(C(=O)O)CC(O)C(NC(C)=O)C(C(O)C(O)CO)O3)C2O)C(O)C1O)N=[N+]=[N-]` (some centres not stated) registered a TGI of over 100 µM.

On to `COc1ccc2c(c1)C(=O)OCCC2`, for which the TGI is over 100 µM.

`CCOC(=O)c1c(NC(=O)OC)c(C#N)c2n1CCCCC2`: the TGI was determined as 43.9 µM.

On to `O=C(/C=C/c1ccc(OCc2cccc(Cl)c2)cc1)NO`, for which the TGI worked out at 40.8 µM.

The compound `COc1cc(C(C)=O)cc(C(=O)N(C(C)C)C(C)C)c1[Si](C)(C)C` registered a TGI of over 100 µM.

`COc1ccc(-c2nc(-c3cc4c(ccc5ccccc54)oc3=O)cs2)cc1` gave a TGI of over 100 µM.

`Cc1cc(C)c(C(=O)c2nnc3ccccc3c2N)c(C)c1`: the TGI is 84 µM.

For `Cc1c(C)n(-c2ccccc2)c2nc(S(C)(=O)=O)nc(S(C)(=O)=O)c12`, the TGI is 27.7 µM.

Take `Cc1ccccc1N/C(=C(/C(Cl)=C(Cl)Cl)[N+](=O)[O-])n1nnc2ccccc21`: the TGI was determined as 62.2 µM.

On to `CCOC(=O)c1nc2ccc(C(F)(F)F)cc2[nH]c1=O`, for which the TGI was over 100 µM.

The compound `COc1ccc2[nH]c3c(c2c1)CC(=S)N1CCCC(CC3=O)C1` (configuration not stated) returned a TGI of over 100 µM.

As for `O=C(O/C=C\OC1CCCC1(c1ccccc1)c1ccccc1)c1ccccc1` (configuration not stated), the TGI stood at 13.6 µM.

In another assay the test system is LOX IMVI melanoma. The experiment in a line: NCI tumour cell line growth inhibition, 48 h.
In the case of `CCCCCCCCCCCCC/C=C/[C@@H](O)[C@H](COC1OC(CO)C(OC2OC(CO)C(O)C(OC3(C(=O)O)CC(O)C(NC(C)=O)C(C(O)C(O)CO)O3)C2O)C(O)C1O)N=[N+]=[N-]` (some centres not stated), the TGI was 36.6 µM.

`CCOC(=O)c1c(NC(=O)OC)c(C#N)c2n1CCCCC2`: the TGI was over 100 µM.

`O=C(/C=C/c1ccc(OCc2cccc(Cl)c2)cc1)NO`: the TGI is 24.4 µM.

Regarding `COc1cc(C(C)=O)cc(C(=O)N(C(C)C)C(C)C)c1[Si](C)(C)C`, the TGI is over 100 µM.

`COc1ccc(-c2nc(-c3cc4c(ccc5ccccc54)oc3=O)cs2)cc1` returned a TGI of over 100 µM.

`Cc1cc(C)c(C(=O)c2nnc3ccccc3c2N)c(C)c1` registered a TGI of 34.9 µM.

`Cc1c(C)n(-c2ccccc2)c2nc(S(C)(=O)=O)nc(S(C)(=O)=O)c12` showed a TGI of 3.43 µM.

With `CCOC(=O)c1nc2ccc(C(F)(F)F)cc2[nH]c1=O`, the TGI was over 100 µM.

In turn, `CCC(=O)O[C@H]1CC[C@H]2[C@@H]3CCC4=C/C(=N/OC(=O)c5cccc6c(=O)c7ccccc7[nH]c56)CC[C@]4(C)[C@H]3CC[C@]12C` displayed a TGI of 51.4 µM.

As for `O=C(O/C=C\OC1CCCC1(c1ccccc1)c1ccccc1)c1ccccc1` (configuration not stated), the TGI came to 3.22 µM.

A further assay concerns A549 NSCLC. The experiment in a line: NCI tumour cell line growth inhibition, 48 h.
On to `CCCCCCCCCCCCC/C=C/[C@@H](O)[C@H](COC1OC(CO)C(OC2OC(CO)C(O)C(OC3(C(=O)O)CC(O)C(NC(C)=O)C(C(O)C(O)CO)O3)C2O)C(O)C1O)N=[N+]=[N-]` (some centres not stated), for which the TGI was over 100 µM.

The compound `COc1ccc2c(c1)C(=O)OCCC2` yielded a TGI of over 100 µM.

`O=C(/C=C/c1ccc(OCc2cccc(Cl)c2)cc1)NO` had a TGI of 51.2 µM.

In the case of `COc1cc(C(C)=O)cc(C(=O)N(C(C)C)C(C)C)c1[Si](C)(C)C`, the TGI was over 100 µM.

On to `COc1ccc(-c2nc(-c3cc4c(ccc5ccccc54)oc3=O)cs2)cc1`, for which the TGI was over 100 µM.

In turn, `Cc1cc(C)c(C(=O)c2nnc3ccccc3c2N)c(C)c1` registered a TGI of over 100 µM.

For the compound `Cc1c(C)n(-c2ccccc2)c2nc(S(C)(=O)=O)nc(S(C)(=O)=O)c12`, the TGI worked out at 30.4 µM.
